Assay results from paper PMC3973950, “Synthesis of 5-arylidine amino-1,3,4-thiadiazol-2-[(N-substituted benzyol)]sulphonamides endowed with potent antioxidants and anticancer activity induces growth inhibition in HEK293, BT474 and NCI-H226 cells” (Medicinal Chemistry Research, 2013).

Test system: BT474 (breast cancer cell line)
Test: In vitro cytotoxicity by MTT assay, BT474
Format: cell-based
Details: Homo sapiens, BT-474, 1.23 μM, 72 h, read-out: % cytotoxicity (100 − % cell survival) of BT474 cell line
Method in brief: (§1)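 After 72 h of compound exposure at 37 °C in 5 % CO2, MTT was added for 4 h and the propanol-solubilised formazan was read at 490 nm. Monolayers (~10,000 cells/well, RPMI-1640 plus 10 % newborn calf serum) had been allowed to form for 24 h beforehand.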

| Structure (SMILES) | cytotoxicity at 1.23 µM [%] |
| --- | --- |
| CC(=O)Nc1ccc(S(=O)(=O)Nc2nnc(S(=O)(=O)NC(=O)c3cccc([N+](=O)[O-])c3)s2)cc1 [Compound 6f] | 37.2 |

Same assay, conditions: Homo sapiens, BT-474, 3.7 μM, 72 h, read-out: % cytotoxicity (100 − % cell survival) of BT474 cell line

| Structure (SMILES) | cytotoxicity at 3.7 µM [%] |
| --- | --- |
| CC(=O)Nc1ccc(S(=O)(=O)Nc2nnc(S(=O)(=O)NC(=O)c3cccc([N+](=O)[O-])c3)s2)cc1 [Compound 6f] | 40.6 |

Same assay, conditions: Homo sapiens, BT-474, 11.11 μM, 72 h, read-out: % cytotoxicity (100 − % cell survival) of BT474 cell line

| Structure (SMILES) | cytotoxicity at 11.11 µM [%] |
| --- | --- |
| CC(=O)Nc1ccc(S(=O)(=O)Nc2nnc(S(=O)(=O)NC(=O)c3cccc([N+](=O)[O-])c3)s2)cc1 [Compound 6f] | 42.2 |

Same assay, conditions: Homo sapiens, BT-474, 33.33 μM, 72 h, read-out: % cytotoxicity (100 − % cell survival) of BT474 cell line

| Structure (SMILES) | cytotoxicity at 33.33 µM [%] |
| --- | --- |
| CC(=O)Nc1ccc(S(=O)(=O)Nc2nnc(S(=O)(=O)NC(=O)c3cccc([N+](=O)[O-])c3)s2)cc1 [Compound 6f] | 45.3 |

Same assay, conditions: Homo sapiens, BT-474, 100 μM, 72 h, read-out: % cytotoxicity (100 − % cell survival) of BT474 cell line

| Structure (SMILES) | cytotoxicity at 100 µM [%] |
| --- | --- |
| CC(=O)Nc1ccc(S(=O)(=O)Nc2nnc(S(=O)(=O)NC(=O)c3cccc([N+](=O)[O-])c3)s2)cc1 [Compound 6f] | 50.8 |

Test system: HEK 293, M468 and NCI-H226
Test: In vitro cytotoxicity by MTT assay, summary over all cell lines
Format: cell-based
Details: on all cell lines
Description: The cancer cell line cultures of HEK 293 ([…]), BT474 (breast cancer cell line) and NCI-H226 (lung cancer) were obtained from Pasteur Institute of India, Coonoor, India, and were cultured in RPMI-1640 and 10 % heat-[…] New born calf serum with antibiotics [penicillin ([…]), streptomycin (100 μg/mL) and amphotericin B (25 μg/mL)]. The cells were maintained at 37 °C in a humidified atmosphere with 5 % CO2 and were subcultured twice a week.
The monolayer cell culture (100 μL) was trypsinized, and the cell count was adjusted to […] using medium containing 10 % new born calf serum. To each well of the 96-well microtitre plate, the diluted cell suspension (approximately 10,000 cells) (0.1 mL) was added and kept for 24 h in incubator at 37 °C in 5 % CO2 atmosphere for cell monolayer formation. After 24 h, when a partial monolayer was formed at the bottom of the well, the supernatant was flicked off, the monolayer was washed once, and different drugs, i.e. synthesized compounds (100 μL), were added to the cells in microtitre plates. The plates were then incubated at 37 °C for 3 days in 5 % CO2 atmosphere, and microscopic examination was carried out and observations recorded every 24 h. After 72 h, the sample solution in the wells was flicked off; MTT dye ([…]) was added to each well; plates were gently shaken and incubated for 4 h at 37 °C in 5 % CO2 incubator. The supernatant was removed and propanol (50 μL) was added; the plates were gently shaken to solubilize the formed formazan. The absorbance was measured using a microplate reader at a wavelength of 490 nm (Edmondson et al., [1988]; Prasad et al., [2005]; Chiruvella et al., [2008]; Chang et al., [2007]).

| Structure (SMILES) | cytotoxic activity compared with all synthesized compounds |
| --- | --- |
| CC(=O)Nc1ccc(S(=O)(=O)Nc2nnc(S(=O)(=O)NC(=O)c3cccc([N+](=O)[O-])c3)s2)cc1 [Compound 6f] | more potent |

Test system: NCI-H226 (lung cancer cell line)
Test: In vitro cytotoxicity by MTT assay, NCI-H226
Format: cell-based
Details: Homo sapiens, NCI-H226, 0.005 μM, 72 h, read-out: % Cytotoxicity (100 − % cell survival) of NCI-H226 cell line
Method in brief: as §1

| Structure (SMILES) | cytotoxicity at 0.005 µM [%] |
| --- | --- |
| CC(=O)Nc1ccc(S(=O)(=O)Nc2nnc(S(=O)(=O)NC(=O)c3cccc([N+](=O)[O-])c3)s2)cc1 [Compound 6f] | 41.3 |

Same assay, conditions: Homo sapiens, NCI-H226, 0.045 μM, 72 h, read-out: % Cytotoxicity (100 − % cell survival) of NCI-H226 cell line

| Structure (SMILES) | cytotoxicity at 0.045 µM [%] |
| --- | --- |
| CC(=O)Nc1ccc(S(=O)(=O)Nc2nnc(S(=O)(=O)NC(=O)c3cccc([N+](=O)[O-])c3)s2)cc1 [Compound 6f] | 46.5 |

Same assay, conditions: Homo sapiens, NCI-H226, 0.13 μM, 72 h, read-out: % Cytotoxicity (100 − % cell survival) of NCI-H226 cell line

| Structure (SMILES) | cytotoxicity at 0.13 µM [%] |
| --- | --- |
| CC(=O)Nc1ccc(S(=O)(=O)Nc2nnc(S(=O)(=O)NC(=O)c3cccc([N+](=O)[O-])c3)s2)cc1 [Compound 6f] | 48.3 |

Same assay, conditions: Homo sapiens, NCI-H226, 0.41 μM, 72 h, read-out: % Cytotoxicity (100 − % cell survival) of NCI-H226 cell line

| Structure (SMILES) | cytotoxicity at 0.41 µM [%] |
| --- | --- |
| CC(=O)Nc1ccc(S(=O)(=O)Nc2nnc(S(=O)(=O)NC(=O)c3cccc([N+](=O)[O-])c3)s2)cc1 [Compound 6f] | 51.3 |

Same assay, conditions: Homo sapiens, NCI-H226, 1.23 μM, 72 h, read-out: % Cytotoxicity (100 − % cell survival) of NCI-H226 cell line

| Structure (SMILES) | cytotoxicity at 1.23 µM [%] |
| --- | --- |
| CC(=O)Nc1ccc(S(=O)(=O)Nc2nnc(S(=O)(=O)NC(=O)c3cccc([N+](=O)[O-])c3)s2)cc1 [Compound 6f] | 54.6 |

Same assay, conditions: Homo sapiens, NCI-H226, 3.7 μM, 72 h, read-out: % Cytotoxicity (100 − % cell survival) of NCI-H226 cell line

| Structure (SMILES) | cytotoxicity at 3.7 µM [%] |
| --- | --- |
| CC(=O)Nc1ccc(S(=O)(=O)Nc2nnc(S(=O)(=O)NC(=O)c3cccc([N+](=O)[O-])c3)s2)cc1 [Compound 6f] | 55.2 |

Same assay, conditions: Homo sapiens, NCI-H226, 11.11 μM, 72 h, read-out: % Cytotoxicity (100 − % cell survival) of NCI-H226 cell line

| Structure (SMILES) | cytotoxicity at 11.11 µM [%] |
| --- | --- |
| CC(=O)Nc1ccc(S(=O)(=O)Nc2nnc(S(=O)(=O)NC(=O)c3cccc([N+](=O)[O-])c3)s2)cc1 [Compound 6f] | 57.1 |

Same assay, conditions: Homo sapiens, NCI-H226, 33.33 μM, 72 h, read-out: % Cytotoxicity (100 − % cell survival) of NCI-H226 cell line

| Structure (SMILES) | cytotoxicity at 33.33 µM [%] |
| --- | --- |
| CC(=O)Nc1ccc(S(=O)(=O)Nc2nnc(S(=O)(=O)NC(=O)c3cccc([N+](=O)[O-])c3)s2)cc1 [Compound 6f] | 59.6 |

Same assay, conditions: Homo sapiens, NCI-H226, 100 μM, 72 h, read-out: % Cytotoxicity (100 − % cell survival) of NCI-H226 cell line

| Structure (SMILES) | cytotoxicity at 100 µM [%] |
| --- | --- |
| CC(=O)Nc1ccc(S(=O)(=O)Nc2nnc(S(=O)(=O)NC(=O)c3cccc([N+](=O)[O-])c3)s2)cc1 [Compound 6f] | 66 |

Test system: not listed separately
Test: In vitro cytotoxicity by MTT assay, NCI-H226
Format: cell-based
Details: human, NCI-H226 lung cancer cells, 0.015 μM, read-out: % Cytotoxicity (100 − % cell survival) of NCI-H226 cell line
Method in brief: as §1

| Structure (SMILES) | cytotoxicity at 72 h, 0.015 µM [%] |
| --- | --- |
| CC(=O)Nc1ccc(S(=O)(=O)Nc2nnc(S(=O)(=O)NC(=O)c3cccc([N+](=O)[O-])c3)s2)cc1 [Compound 6f] | 44.9 |
